# US9428456B2, “1-[m-carboxamido(hetero)aryl-methyl]-heterocyclyl-carboxamide derivatives” (Actelion Pharmaceuticals Ltd., priority 2012, dated 2016)
# Target: CXCR7 (Homo sapiens (Human), UniProt P25106)
# Experiment: PathHunter CHO-K1 CXCR7 b-arrestin assay (agonistic activity)
# Type: cell-based
# Settings: PathHunter CHO-K1 CXCR7 b-arrestin cell line
# Method: The CXCl12 receptor and CXCR7 agonistic activities of the compounds of formula (I) are determined in accordance with the following experimental method.
# The assay is using the PathHunter™ CHO-K1 CXCR7 b-arrestin cell line from DiscoverX. The system is based on the Enzyme Fragment Complementation Technology. Two complementing fragments of the b-galactosidase enzyme are expressed within stably transfected cells. The larger portion of b-gal, termed EA for Enzyme Acceptor, is fused to the C-terminus of b-arrestin 2. The smaller fragment, termed ProLink™ tag, is fused to CXCR7 at the C-terminus. Upon activation, b-arrestin is recruited which forces the interaction of ProLink and EA, allowing complementation of the two fragments of b-gal and the formation of a functional enzyme which is capable of hydrolysing the substrate and generating a chemiluminescent signal.
# CHO-K1 CXCR7 b-arrestin cells are detached from culture dishes with a cell dissociation buffer (Invitrogen, #13151-014) and collected in growing medium (F12 HAMS 90% (v/v)/FCS 10% (v/v), Penicilin/streptomycin 1% (v/v)). 5000 cells per well (in 20 μl) are seeded in a 384 well plate (white-walled, clear bottom; BD Falcon #353274). The plate is incubated at 37° C./5% CO2 for 24 hours. Medium is then replaced by 20 μl OPTIMEM (Invitrogen #31985) for 3 to 4 hours. Test compounds are dissolved at 10 mM in DMSO and serially diluted in DMSO to 200× of the final concentration for dose response curves. Compounds are then diluted 1:33.3 in HBSS1×. 5 μl/well of HBSS1×/20 mM HEPES/0.2% BSA are added to the assay plate followed by addition of 5 μl/well of diluted compounds. CXCL12 (Peprotech #300-28A) may be used as a reference agonist. The plate is incubated for 90 minutes at 37° C. 12 μl of detection reagent (Path Hunter Detection Kit, DiscoveRx, #93-0001) is transferred to the assay plate and to the plate is incubated for 1 hour at room temperature. Luminescent signal is read in a microplate reader (FLUOstar Optima, bmg). The calculated EC50 values may fluctuate depending on the daily cellular assay performance. Fluctuations of this kind are known to those skilled in the art. Average EC50 values from several measurements are given as geometric mean values.
# CXCR7, sequence (P25106 whole entry): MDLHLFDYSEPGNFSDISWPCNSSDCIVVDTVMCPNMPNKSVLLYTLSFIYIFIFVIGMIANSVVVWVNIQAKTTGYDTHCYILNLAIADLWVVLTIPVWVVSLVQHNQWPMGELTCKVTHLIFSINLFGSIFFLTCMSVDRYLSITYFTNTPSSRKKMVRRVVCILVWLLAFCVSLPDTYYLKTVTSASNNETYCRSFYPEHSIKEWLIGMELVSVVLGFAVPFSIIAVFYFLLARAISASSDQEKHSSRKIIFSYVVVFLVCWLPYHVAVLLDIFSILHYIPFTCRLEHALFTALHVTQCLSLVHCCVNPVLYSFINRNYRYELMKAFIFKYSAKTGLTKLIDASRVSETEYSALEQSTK
# CXCR7, sequence (P32121 whole entry partner): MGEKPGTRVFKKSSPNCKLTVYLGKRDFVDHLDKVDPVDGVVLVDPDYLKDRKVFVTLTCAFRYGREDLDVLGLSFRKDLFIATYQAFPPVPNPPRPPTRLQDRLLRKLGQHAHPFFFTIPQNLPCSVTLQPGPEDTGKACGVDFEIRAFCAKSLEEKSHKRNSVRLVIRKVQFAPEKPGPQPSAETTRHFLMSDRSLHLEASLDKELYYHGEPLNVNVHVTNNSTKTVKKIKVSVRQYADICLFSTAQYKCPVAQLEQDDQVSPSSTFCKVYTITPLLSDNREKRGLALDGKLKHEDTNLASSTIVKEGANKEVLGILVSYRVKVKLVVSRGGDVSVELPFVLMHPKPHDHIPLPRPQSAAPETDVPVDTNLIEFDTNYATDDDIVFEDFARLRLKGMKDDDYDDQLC
row,Compound,EC50 [nM]
1,1-[3-(4-Chloro-benzoylamino)-benzyl]-piperidine-4-carboxylic acid (1-cyano-cyclopropyl)-amide [Example 2.036],15
2,1-[3-(4-Chloro-benzoylamino)-benzyl]-piperidine-4-carboxylic acid (tetrahydro-pyran-4-yl)-amide [Example 2.013],13
3,6-Trifluoromethyl-pyridine-2-carboxylic acid [3-(4-pentylcarbamoyl-piperidin-1-ylmethyl)-phenyl]-amide [Example 2.080],15
4,O=C(NC1CCCCC1)C1CCN(Cc2cccc(NC(=O)C3CC3c3ccccc3)c2)CC1 (racemic) [Example 1.029],5
5,CC(C)C(C(=O)Nc1cccc(CN2CCC(C(=O)NC3CCCCC3)CC2)c1)c1ccccc1 (racemic) [Example 1.036],35
6,CC(C(=O)Nc1cccc(CN2CCC(C(=O)NC(C)(C)C)CC2)c1)c1ccccc1 (racemic) [Example 1.079],3
7,CC(c1cccc(NC(=O)c2ccc(Cl)cn2)c1)N1CCC(C(=O)NC2CCCCC2)CC1 (racemic) [Example 1.168],2
8,CC(c1cccc(NC(=O)c2ccccn2)c1)N1CCC(C(=O)NC2CCCCC2)CC1 (racemic) [Example 1.169],12
9,CC(c1cccc(NC(=O)c2cnccn2)c1)N1CCC(C(=O)NC2CCCCC2)CC1 (racemic) [Example 1.170],18
10,CC(c1cccc(NC(=O)c2cccnc2)c1)N1CCC(C(=O)NC2CCCCC2)CC1 (racemic) [Example 1.171],150
11,Cc1cncc(C(=O)Nc2cccc(C(C)N3CCC(C(=O)NC4CCCCC4)CC3)c2)c1 (racemic) [Example 1.172],28
12,CC(c1cccc(NC(=O)Cc2cccc(C(F)(F)F)c2)c1)N1CCC(C(=O)NC2CCCCC2)CC1 (racemic) [Example 1.173],26
13,CC(c1cccc(NC(=O)c2ccncc2Cl)c1)N1CCC(C(=O)NC2CCCCC2)CC1 (racemic) [Example 1.174],559
14,COc1ccc(OCC(=O)Nc2cccc(C(C)N3CCC(C(=O)NC4CCCCC4)CC3)c2)cc1 (racemic) [Example 1.175],181
15,CC(c1cccc(NC(=O)c2ccncc2)c1)N1CCC(C(=O)NC2CCCCC2)CC1 (racemic) [Example 1.176],173
16,CC(c1cccc(NC(=O)c2ccc(C(F)(F)F)cc2)c1)N1CCC(C(=O)NC2CCCCC2)CC1 (racemic) [Example 1.177],37
17,CC(c1cccc(NC(=O)c2ccc(C#N)cc2)c1)N1CCC(C(=O)NC2CCCCC2)CC1 (racemic) [Example 1.178],64
18,CC(c1cccc(NC(=O)c2cccc(C#N)c2)c1)N1CCC(C(=O)NC2CCCCC2)CC1 (racemic) [Example 1.179],78
19,CC(c1cccc(NC(=O)c2cc(Cl)ccn2)c1)N1CCC(C(=O)NC2CCCCC2)CC1 (racemic) [Example 1.180],51
20,Cc1ccc(C(=O)Nc2cccc(C(C)N3CCC(C(=O)NC4CCCCC4)CC3)c2)cn1 (racemic) [Example 1.181],148
21,Cc1cccc(C(=O)Nc2cccc(C(C)N3CCC(C(=O)NC4CCCCC4)CC3)c2)n1 (racemic) [Example 1.182],7
22,CC(c1cccc(NC(=O)c2ccc(C(F)(F)F)nc2)c1)N1CCC(C(=O)NC2CCCCC2)CC1 (racemic) [Example 1.183],98
23,Cc1cc(C(=O)Nc2cccc(C(C)N3CCC(C(=O)NC4CCCCC4)CC3)c2)ccn1 (racemic) [Example 1.184],33
24,Cc1cnc(C(=O)Nc2cccc(C(C)N3CCC(C(=O)NC4CCCCC4)CC3)c2)cn1 (racemic) [Example 1.185],15
25,Cc1cc(C(=O)Nc2cccc(C(C)N3CCC(C(=O)NC4CCCCC4)CC3)c2)c2cnn(C(C)C)c2n1 (racemic) [Example 1.186],86
26,CC(c1cccc(NC(=O)c2cccc(C(F)(F)F)n2)c1)N1CCC(C(=O)NC2CCCCC2)CC1 (racemic) [Example 1.187],7
